For 10 compounds, IC50 and Ki results are on record in ChEMBL document CHEMBL1909046, “DrugMatrix in vitro pharmacology data”.

C-C chemokine receptor type 5, sequence (P51681 whole entry): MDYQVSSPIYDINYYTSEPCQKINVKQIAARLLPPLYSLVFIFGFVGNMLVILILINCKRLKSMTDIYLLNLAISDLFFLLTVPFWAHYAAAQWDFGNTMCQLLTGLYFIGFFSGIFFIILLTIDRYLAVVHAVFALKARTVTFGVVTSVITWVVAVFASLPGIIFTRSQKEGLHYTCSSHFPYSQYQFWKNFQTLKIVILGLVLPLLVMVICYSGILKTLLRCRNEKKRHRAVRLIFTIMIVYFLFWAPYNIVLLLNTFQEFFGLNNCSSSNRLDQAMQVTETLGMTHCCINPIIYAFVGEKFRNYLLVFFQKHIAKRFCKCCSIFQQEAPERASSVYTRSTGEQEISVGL

In one data set the target is T1, Cytochrome P450 2A6 (Homo sapiens, UniProt P11509). Also: in other assays of this panel Not Active means under 50% inhibition at 10 µM.
T1 sequence (P11509 whole entry): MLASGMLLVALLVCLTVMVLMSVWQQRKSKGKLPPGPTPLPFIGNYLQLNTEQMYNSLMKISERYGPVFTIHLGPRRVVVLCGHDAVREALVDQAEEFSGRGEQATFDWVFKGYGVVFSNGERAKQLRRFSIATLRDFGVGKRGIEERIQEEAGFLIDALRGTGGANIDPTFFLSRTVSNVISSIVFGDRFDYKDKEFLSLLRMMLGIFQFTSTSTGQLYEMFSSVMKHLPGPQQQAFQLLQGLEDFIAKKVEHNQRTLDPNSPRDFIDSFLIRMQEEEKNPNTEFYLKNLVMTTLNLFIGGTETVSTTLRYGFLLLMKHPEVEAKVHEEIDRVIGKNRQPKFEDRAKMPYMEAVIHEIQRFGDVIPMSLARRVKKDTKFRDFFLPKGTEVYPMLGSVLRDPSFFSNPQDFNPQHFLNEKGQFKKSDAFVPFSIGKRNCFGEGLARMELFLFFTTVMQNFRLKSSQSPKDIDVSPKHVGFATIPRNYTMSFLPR
Particulars: bti-tn-5b1-4.
Take `CN1C2CCCC1CC(NC(=O)c1nn(C)c3ccccc13)C2` (stereo not given) [GRANISETRON]: the IC50 result is “Not Active” and the Ki result is reported as “Not Active”.

Turning to `Nc1nc2c(c(=O)[nH]1)N(C=O)C(CNc1ccc(C(=O)N[C@@H](CCC(=O)O)C(=O)O)cc1)CN2` (stereo not given in full) [LEUCOVORIN], the IC50 result is “Not Active” and the Ki result was “Not Active”.

With `C[C@@H](O)[C@H]1C(=O)N2C(C(=O)O)=C(S[C@@H]3CN[C@H](C(=O)N(C)C)C3)[C@H](C)[C@H]12` [MEROPENEM], the IC50 entry is recorded as “Not Active” and the Ki entry is “Not Active”.

Turning to `CC[C@@H](CO)NC(=O)[C@@H]1C=C2c3cccc4c3c(cn4C)C[C@H]2N(C)C1` [METHYSERGIDE], the IC50 result is listed as “Not Active” and the Ki entry was “Not Active”.

`CCN(CC)CC#CCOC(=O)C(O)(c1ccccc1)C1CCCCC1` (stereo not given) [OXYBUTYNIN]: the IC50 entry is on record as “Not Active” and the Ki result was “Not Active”.

`O=P(O)(O)C(O)(Cc1cccnc1)P(=O)(O)O` [RISEDRONIC ACID]: the IC50 entry is recorded as “Not Active” and the Ki entry is given as “Not Active”.

`O=c1n(CCCN2CCN(c3cccc(Cl)c3)CC2)nc2ccccn12` [TRAZODONE]: the IC50 entry is listed as “Not Active” and the Ki entry is on record as “Not Active”.

The target of the next data set is T2, D(4) dopamine receptor (Homo sapiens, UniProt P21917).
T2 sequence (P21917 whole entry): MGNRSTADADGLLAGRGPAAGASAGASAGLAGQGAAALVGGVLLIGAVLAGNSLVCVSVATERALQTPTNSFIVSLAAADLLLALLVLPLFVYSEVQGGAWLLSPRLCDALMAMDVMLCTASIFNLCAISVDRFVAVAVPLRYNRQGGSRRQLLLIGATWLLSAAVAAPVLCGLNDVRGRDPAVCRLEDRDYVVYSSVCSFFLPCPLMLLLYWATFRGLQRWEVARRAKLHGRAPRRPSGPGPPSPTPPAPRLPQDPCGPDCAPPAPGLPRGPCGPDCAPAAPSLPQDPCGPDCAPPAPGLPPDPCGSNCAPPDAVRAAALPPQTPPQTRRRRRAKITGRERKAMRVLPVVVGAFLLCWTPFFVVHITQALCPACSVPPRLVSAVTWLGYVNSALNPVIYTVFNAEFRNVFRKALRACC
The data set can be described thus: DRUGMATRIX: Dopamine D4.2 radioligand binding (ligand: [3H] Spiperone). Format: cell membranes, CHO-K1, Membrane. The settings on record: cho-k1; Not Active = under 50% inhibition at 10 µM.
For `O=c1[nH]c2ccccc2n1CCCN1CCC(n2c(=O)[nH]c3cc(Cl)ccc32)CC1` [DOMPERIDONE], the IC50 result is “Not Active”.

As to `CN1C2CCCC1CC(NC(=O)c1nn(C)c3ccccc13)C2` (stereo not given) [GRANISETRON], the IC50 result is listed as “Not Active”.

Consider `Nc1nc2c(c(=O)[nH]1)N(C=O)C(CNc1ccc(C(=O)N[C@@H](CCC(=O)O)C(=O)O)cc1)CN2` (stereo not given in full) [LEUCOVORIN], for which the IC50 entry is listed as “Not Active”.

Take `C[C@@H](O)[C@H]1C(=O)N2C(C(=O)O)=C(S[C@@H]3CN[C@H](C(=O)N(C)C)C3)[C@H](C)[C@H]12` [MEROPENEM]: the IC50 entry is given as “Not Active”.

`CC[C@@H](CO)NC(=O)[C@@H]1C=C2c3cccc4c3c(cn4C)C[C@H]2N(C)C1` [METHYSERGIDE]: the IC50 entry is on record as “Not Active”.

Consider `CCN(CC)CC#CCOC(=O)C(O)(c1ccccc1)C1CCCCC1` (stereo not given) [OXYBUTYNIN], for which the IC50 entry is given as “Not Active”.

With `O=P(O)(O)C(O)(Cc1cccnc1)P(=O)(O)O` [RISEDRONIC ACID], the IC50 result was “Not Active”.

In the case of `CCS(=O)(=O)CCn1c([N+](=O)[O-])cnc1C` [TINIDAZOLE], the IC50 entry is recorded as “Not Active”.

With `O=c1n(CCCN2CCN(c3cccc(Cl)c3)CC2)nc2ccccn12` [TRAZODONE], the IC50 entry is listed as “Not Active”.

For `COc1ccc(CN2CCNCC2)c(OC)c1OC` [TRIMETAZIDINE], the IC50 entry is reported as “Not Active”.

The target in another data set is T3, Type-2 angiotensin II receptor (Homo sapiens, UniProt P50052). Also: in other assays of this panel Not Active means under 50% inhibition at 10 µM.
T3 sequence (P50052 whole entry): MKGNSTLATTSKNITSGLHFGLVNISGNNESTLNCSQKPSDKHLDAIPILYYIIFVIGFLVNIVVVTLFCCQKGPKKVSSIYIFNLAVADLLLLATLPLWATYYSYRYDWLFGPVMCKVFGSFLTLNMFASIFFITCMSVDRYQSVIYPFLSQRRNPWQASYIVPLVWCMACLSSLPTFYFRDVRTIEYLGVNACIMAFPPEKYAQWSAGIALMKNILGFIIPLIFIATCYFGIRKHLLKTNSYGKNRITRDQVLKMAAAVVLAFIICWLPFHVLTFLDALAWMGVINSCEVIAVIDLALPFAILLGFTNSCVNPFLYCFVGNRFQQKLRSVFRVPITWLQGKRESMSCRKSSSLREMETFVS
Format: cell-based. Particulars: cho-k1.
In the case of `O=c1[nH]c2ccccc2n1CCCN1CCC(n2c(=O)[nH]c3cc(Cl)ccc32)CC1` [DOMPERIDONE], the IC50 result is reported as “Not Active”.

Regarding `CN1C2CCCC1CC(NC(=O)c1nn(C)c3ccccc13)C2` (stereo not given) [GRANISETRON], the IC50 result is given as “Not Active”.

For `Nc1nc2c(c(=O)[nH]1)N(C=O)C(CNc1ccc(C(=O)N[C@@H](CCC(=O)O)C(=O)O)cc1)CN2` (stereo not given in full) [LEUCOVORIN], the IC50 entry is “Not Active”.

For `C[C@@H](O)[C@H]1C(=O)N2C(C(=O)O)=C(S[C@@H]3CN[C@H](C(=O)N(C)C)C3)[C@H](C)[C@H]12` [MEROPENEM], the IC50 result is recorded as “Not Active”.

With `CC[C@@H](CO)NC(=O)[C@@H]1C=C2c3cccc4c3c(cn4C)C[C@H]2N(C)C1` [METHYSERGIDE], the IC50 entry was “Not Active”.

For `CCN(CC)CC#CCOC(=O)C(O)(c1ccccc1)C1CCCCC1` (stereo not given) [OXYBUTYNIN], the IC50 result is on record as “Not Active”.

Regarding `O=P(O)(O)C(O)(Cc1cccnc1)P(=O)(O)O` [RISEDRONIC ACID], the IC50 result is “Not Active”.

Turning to `CCS(=O)(=O)CCn1c([N+](=O)[O-])cnc1C` [TINIDAZOLE], the IC50 entry is “Not Active”.

Consider `O=c1n(CCCN2CCN(c3cccc(Cl)c3)CC2)nc2ccccn12` [TRAZODONE], for which the IC50 entry is reported as “Not Active”.

Take `COc1ccc(CN2CCNCC2)c(OC)c1OC` [TRIMETAZIDINE]: the IC50 entry was “Not Active”.

The next data set addresses C-C chemokine receptor type 5 (Homo sapiens, UniProt P51681). Format: cell membranes, Membrane. The settings on record: hek293.
On to `O=c1[nH]c2ccccc2n1CCCN1CCC(n2c(=O)[nH]c3cc(Cl)ccc32)CC1` [DOMPERIDONE], for which the IC50 result was “Not Active”.

Turning to `CN1C2CCCC1CC(NC(=O)c1nn(C)c3ccccc13)C2` (stereo not given) [GRANISETRON], the IC50 entry was “Not Active”.

On to `Nc1nc2c(c(=O)[nH]1)N(C=O)C(CNc1ccc(C(=O)N[C@@H](CCC(=O)O)C(=O)O)cc1)CN2` (stereo not given in full) [LEUCOVORIN], for which the IC50 result is given as “Not Active”.

For the compound `C[C@@H](O)[C@H]1C(=O)N2C(C(=O)O)=C(S[C@@H]3CN[C@H](C(=O)N(C)C)C3)[C@H](C)[C@H]12` [MEROPENEM], the IC50 entry is given as “Not Active”.

`CC[C@@H](CO)NC(=O)[C@@H]1C=C2c3cccc4c3c(cn4C)C[C@H]2N(C)C1` [METHYSERGIDE]: the IC50 result is “Not Active”.

`CCN(CC)CC#CCOC(=O)C(O)(c1ccccc1)C1CCCCC1` (stereo not given) [OXYBUTYNIN]: the IC50 entry was “Not Active”.

For the compound `O=P(O)(O)C(O)(Cc1cccnc1)P(=O)(O)O` [RISEDRONIC ACID], the IC50 result is “Not Active”.

As for `CCS(=O)(=O)CCn1c([N+](=O)[O-])cnc1C` [TINIDAZOLE], the IC50 entry is recorded as “Not Active”.

In the case of `O=c1n(CCCN2CCN(c3cccc(Cl)c3)CC2)nc2ccccn12` [TRAZODONE], the IC50 entry was “Not Active”.

Consider `COc1ccc(CN2CCNCC2)c(OC)c1OC` [TRIMETAZIDINE], for which the IC50 entry is given as “Not Active”.

System in the next data set: not listed separately
Briefly: DRUGMATRIX: Calcium Channel Type L, Dihydropyridine radioligand binding (ligand: [3H] Nitrendipine). Format: cell membranes, Rattus norvegicus, Wistar, Cerebral cortex, Membrane. Particulars: Not Active = under 50% inhibition at 10 µM.
`Nc1nc2c(c(=O)[nH]1)N(C=O)C(CNc1ccc(C(=O)N[C@@H](CCC(=O)O)C(=O)O)cc1)CN2` (stereo not given in full) [LEUCOVORIN]: the IC50 result is “Not Active” and the Ki result is “Not Active”.

As to `C[C@@H](O)[C@H]1C(=O)N2C(C(=O)O)=C(S[C@@H]3CN[C@H](C(=O)N(C)C)C3)[C@H](C)[C@H]12` [MEROPENEM], the IC50 result is recorded as “Not Active” and the Ki result was “Not Active”.

For the compound `O=P(O)(O)C(O)(Cc1cccnc1)P(=O)(O)O` [RISEDRONIC ACID], the IC50 entry is “Not Active” and the Ki result is “Not Active”.

For the compound `CCS(=O)(=O)CCn1c([N+](=O)[O-])cnc1C` [TINIDAZOLE], the IC50 entry is recorded as “Not Active” and the Ki result is “Not Active”.

`COc1ccc(CN2CCNCC2)c(OC)c1OC` [TRIMETAZIDINE]: the IC50 result was “Not Active” and the Ki result is listed as “Not Active”.

System in a further data set: not listed separately
Briefly: DRUGMATRIX: Calcium Channel Type L, Phenylalkylamine radioligand binding (ligand: [3H] (-)-Desmethoxyverapamil (D-888)). Format: cell membranes, Rattus norvegicus, Wistar, Brain, Membrane. The settings on record: Not Active = under 50% inhibition at 10 µM.
Turning to `Nc1nc2c(c(=O)[nH]1)N(C=O)C(CNc1ccc(C(=O)N[C@@H](CCC(=O)O)C(=O)O)cc1)CN2` (stereo not given in full) [LEUCOVORIN], the IC50 result is reported as “Not Active” and the Ki entry is on record as “Not Active”.

With `C[C@@H](O)[C@H]1C(=O)N2C(C(=O)O)=C(S[C@@H]3CN[C@H](C(=O)N(C)C)C3)[C@H](C)[C@H]12` [MEROPENEM], the IC50 entry is on record as “Not Active” and the Ki entry is “Not Active”.

Turning to `O=P(O)(O)C(O)(Cc1cccnc1)P(=O)(O)O` [RISEDRONIC ACID], the IC50 entry was “Not Active” and the Ki result is “Not Active”.

Regarding `CCS(=O)(=O)CCn1c([N+](=O)[O-])cnc1C` [TINIDAZOLE], the IC50 result is “Not Active” and the Ki result is given as “Not Active”.

For the compound `COc1ccc(CN2CCNCC2)c(OC)c1OC` [TRIMETAZIDINE], the IC50 result was “Not Active” and the Ki entry is reported as “Not Active”.

The target in another data set is 5-hydroxytryptamine receptor 2B (Homo sapiens, UniProt P41595). In kind it is cell membranes, CHO-K1, Membrane. The settings on record: cho-k1. Also: in other assays of this panel Not Active means under 50% inhibition at 10 µM.
5-hydroxytryptamine receptor 2B, sequence (P41595 whole entry): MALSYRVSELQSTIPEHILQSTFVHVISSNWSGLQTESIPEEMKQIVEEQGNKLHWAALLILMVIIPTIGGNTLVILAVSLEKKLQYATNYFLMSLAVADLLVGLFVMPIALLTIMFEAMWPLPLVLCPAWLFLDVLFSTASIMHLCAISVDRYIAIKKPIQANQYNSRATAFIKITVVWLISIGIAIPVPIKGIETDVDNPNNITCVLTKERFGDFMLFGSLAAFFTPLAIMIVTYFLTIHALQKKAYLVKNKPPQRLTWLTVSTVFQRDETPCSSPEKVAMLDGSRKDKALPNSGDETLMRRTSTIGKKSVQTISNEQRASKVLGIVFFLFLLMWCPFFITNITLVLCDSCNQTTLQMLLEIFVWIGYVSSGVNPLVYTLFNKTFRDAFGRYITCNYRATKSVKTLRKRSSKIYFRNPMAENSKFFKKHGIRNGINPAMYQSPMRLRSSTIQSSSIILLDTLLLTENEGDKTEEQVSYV
Turning to `CN1C2CCCC1CC(NC(=O)c1nn(C)c3ccccc13)C2` (stereo not given) [GRANISETRON], the IC50 result is given as “Not Active”.

`Nc1nc2c(c(=O)[nH]1)N(C=O)C(CNc1ccc(C(=O)N[C@@H](CCC(=O)O)C(=O)O)cc1)CN2` (stereo not given in full) [LEUCOVORIN]: the IC50 result is listed as “Not Active”.

Take `C[C@@H](O)[C@H]1C(=O)N2C(C(=O)O)=C(S[C@@H]3CN[C@H](C(=O)N(C)C)C3)[C@H](C)[C@H]12` [MEROPENEM]: the IC50 result is on record as “Not Active”.

Consider `O=P(O)(O)C(O)(Cc1cccnc1)P(=O)(O)O` [RISEDRONIC ACID], for which the IC50 result is “Not Active”.

Turning to `CCS(=O)(=O)CCn1c([N+](=O)[O-])cnc1C` [TINIDAZOLE], the IC50 entry is reported as “Not Active”.

As to `COc1ccc(CN2CCNCC2)c(OC)c1OC` [TRIMETAZIDINE], the IC50 result was “Not Active”.
